Measurements as given in US9938258B2 (Karyopharm Therapeutics Inc., priority 2012, dated 2018).
Structures can show the parent of a compound that is named as a salt. Where two headings read alike, the source gives them in different places.

What was measured:
MS751 cells = test: MTT cell proliferation assay, MS751; format: cell-based, human; conditions: Homo sapiens, MS751, MS751 cells, read-out: MTT Assay IC50, MS751
Summary of the method: (§1)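 Seeding 5,000-10,000 cells/well, overnight attachment; 8 concs, 1 nM–30 μM. MTT ~4 h, formazan solubilized, OD 490 nm. % inhibition vs negative control, mostly duplicate, mean±SE.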

Z138 cells = test: MTT cell proliferation assay, Z138; format: cell-based; conditions: Homo sapiens, Z-138, Z138 cells, read-out: MTT Assay IC50, Z138
Summary of the method: as §1

3T3 cells = test: MTT cell proliferation assay, 3T3; format: cell-based, mouse; conditions: Mus musculus, NIH3T3, 3T3 cells, read-out: MTT Assay IC50, 3T3
Summary of the method: as §1

[1] = tested on: Z-138 mantle cell lymphoma cancer xenograft; test: Z-138 mouse xenograft model; format: in vivo; conditions: QDx5/week for 4 weeks, SCID mice with Z-138 tumors; for tumor growth (mean tumor volume): versus cyclophosphamide 80 mg/kg Days 1-3
Description: The oncological impact of selected substituted 2,3-dihydrobenzofuranyl compounds was tested using a Z-138 mantle cell lymphoma cancer xenograft model in SCID mice. SCID Mice were inoculated s.c. in both flanks with 5×10^6 Z-138 cells. When the tumors reached a mean size of between 100 and 200 mm^3, mice were randomly and prospectively divided. Tumor-bearing mice were treated with vehicle, cyclophosphamide (positive control) or Compound 123 on M-F (QDx5/week) for 4 weeks. Compound 123 was administered orally (PO) at initial doses of 30 and 100 mg/kg five times a week. Cyclophosphamide was given as a positive control at 80 mg/kg on Days 1-3. Animals' weights and conditions were recorded daily, and tumors were measured on Mondays-Wednesdays-Fridays.

Z-138 cells = test: Cell cycle arrest (BrdU / 7-AAD flow cytometry); format: cell-based; conditions: 1 μM for 1, 2 and 3 days
Description: Z-138 cells (mantle cell lymphoma) were plated at a density of 1×10^6 cells/well and treated with no drug (DMSO control) or with 1 μM Compound 123 for 1, 2, and 3 days in culture. For each time point, cells were treated with 10 μM BrdU for 2 hours, then collected by centrifugation. Cells were subsequently washed, fixed, and then stained for BrdU and total DNA (7-AAD). BrdU incorporation and cell cycle analysis were analyzed by flow cytometry at the Dana Farber Cancer Institute on a BD Fortessa Analyzer. Data was then analyzed using FCS Express 4 software.
FIGS. 1A, 1B, 1C and 1D are single-cell scatter plots and show BrdU versus 7-AAD for Z138 cells treated with no drug (FIG. 1A) or treated with 1 μM Compound 123 for 1 day (FIG. 1B), 2 days (FIG. 1C), or 3 days (FIG. 1D). Graphs showing cell count versus 7-AAD intensities are depicted below their corresponding scatter plots.

[2] = tested on: PAK4 interactors and downstream proteins; test: Immunoblots of PAK4 interactors and downstream proteins in U2OS cells; format: cell-based, human; conditions: 0.5 μM or 5 μM, 72 hours
Description: Immunoblots were used to measure the effects of exemplary compounds on protein steady-state levels and phophorylation of PAK4 interactor and downstream proteins. Specifically, U2OS (osteosarcoma) cells were split and plated on day 1. After overnight attachment to the tissue culture plate, cells were treated with either DMSO (0), 37 nM, 111 nM, 333 nM, 1 μM, or 3 μM Compound 246 for 72 hours. Cells were collected, washed and lysed in RIPA buffer. After obtaining the protein concentration by BCA assay, lysates were boiled in loading buffer and run on SDS-PAGE. The gels were transferred to nitrocellulose membranes and blotted with antibodies raised against phosphor-PAK4, PAK4, phophos-beta-catenin, beta-catenin, GEF-H1, phospho-Akt, Akt, phospho-ERK1/2, ERK1/2, phospho-cofilin, cofilin, phospho-histone H3, histone H3, cyclin D1, Mcl-1, Bcl-2, p21, survivin, caspase 8, caspase 3, PARP, and beta-actin (loading control).
In another experiment, U2OS (osteosarcoma) cells were split and plated on day 1. After overnight attachment to the tissue culture plate, cells were treated with DMSO (Ct), 0.5 μM, or 5 μM of Compound 124, 369, 226, 246, or 907 for 72 hours. Cells were collected, washed and lysed in RIPA buffer. After obtaining the protein concentration by BCA assay, lysates were boiled in loading buffer and run on SDS-PAGE. The gels were transferred to nitrocellulose membranes and blotted with antibodies raised against phophos-beta-catenin, cyclin D1, PAK4, phospho-cofilin, and beta-actin (loading control).

[3] = eight concentrations 1 nM to 30 μM, incubation approximately 64-72 hours
[4] = approximately 64-72 hours incubation

Structure (SMILES)	IC50 (MS751 cells; [3]) [µM]	IC50 (Z138 cells; [3]) [µM]	IC50 (3T3 cells; [3]) [µM]	IC50 (MS751 cells; [4]) [µM]	IC50 (Z138 cells; [4]) [µM]	IC50 (3T3 cells; [4]) [µM]	also measured
CC(=O)c1ccc(-c2cc(Cl)c3c(c2)CC(CNC(=O)/C=C/c2cccnc2)O3)s1 (single isomer, unassigned) [Compound 123, (E)-N-((5-(5-acetylthiophen-2-yl)-7-chloro-2,3-dihydrobenzofuran-2-yl)methyl)-3-(pyridin-3-yl)acrylamide]	< 0.1	< 0.1	0.1 to 5				tumor growth (mean tumor volume) ([1]; 30 mg/kg PO): inhibited tumor growth with an efficacy better than that of cyclophosphamide; tumor growth (mean tumor volume) ([1]; 100 mg/kg PO): inhibited tumor growth with an efficacy similar to cyclophosphamide; tolerability (mean percent weight change) ([1]; 30 and 100 mg/kg PO): tolerated at both doses; G1 (Z-138 cells): no change; G2/M (Z-138 cells): increased; S phase (Z-138 cells): significant decrease; sub-G1 fraction (Z-138 cells): small increase
CC(=O)c1ccc(-c2cc(Cl)c3c(c2)CC(CNC(=O)CCc2cccnc2)O3)s1 (centres unmarked) [Compound 369, N-((5-(5-Acetylthiophen-2-yl)-7-chloro-2,3-dihydrobenzofuran-2-yl)methyl)-3-(pyridin-3-yl)propanamide]				0.1 to 5	0.1 to 5	5 to 30	PAK4 total protein [2]: decrease; phosphorylation of PAK4 signaling proteins beta-catenin and cofilin [2]: decreases in phosphorylation
Nc1ccc(CNC(=O)/C=C/C2Cc3cc(-c4ccc(C(=O)N5CCOCC5)cc4)cc(Cl)c3O2)cn1 (centres unmarked) [Compound 907, (E)-N-((6-aminopyridin-3-yl)methyl)-3-(7-chloro-5-(4-(morpholine-4-carbonyl)phenyl)-2,3-dihydrobenzofuran-2-yl)acrylamide hydrochloride]				< 0.1	< 0.1	5 to 30	PAK4 total protein [2]: decrease; phosphorylation of PAK4 signaling proteins beta-catenin and cofilin [2]: decreases in phosphorylation
CC(=O)c1ccc(-c2cc(Cl)c3c(c2)CC(CNC(=O)/C=C/c2c(C)noc2C)O3)s1 (centres unmarked) [Compound 147, (E)-N-((5-(5-acetylthiophen-2-yl)-7-chloro-2,3-dihydrobenzofuran-2-yl)methyl)-3-(3,5-dimethylisoxazol-4-yl)acrylamide]	0.1 to 5	0.1 to 5	> 30				
Nc1ccc(/C=C/C(=O)NCC2Cc3cc(-c4ccc(C(=O)N5CC(F)(F)C5)c(F)c4)cc(Cl)c3O2)cn1 (centres unmarked) [Compound 336, (E)-3-(6-aminopyridin-3-yl)-N-((7-chloro-5-(4-(3,3-difluoroazetidine-1-carbonyl)-3-fluorophenyl)-2,3-dihydrobenzofuran-2-yl)methyl)acrylamide]				< 0.1	< 0.1	0.1 to 5	
Nc1ccc(/C=C/C(=O)NCC2Cc3cc(-c4ccc(C(=O)N5CCCCC5)cn4)cc(Cl)c3O2)cn1 (centres unmarked) [Compound 339, (E)-3-(6-aminopyridin-3-yl)-N-((7-chloro-5-(5-(piperidine-1-carbonyl)pyridin-2-yl)-2,3-dihydrobenzofuran-2-yl)methyl)acrylamide]				0.1 to 5	< 0.1	5 to 30	
CC(=O)c1ccc(-c2cc(Cl)c3c(c2)CC(CNC(=O)/C=C/c2cn(C)nc2C)O3)s1 (centres unmarked) [Compound 156, (E)-N-((5-(5-acetylthiophen-2-yl)-7-chloro-2,3-dihydrobenzofuran-2-yl)methyl)-3-(1,3-dimethyl-1H-pyrazol-4-yl)acrylamide]	> 30	> 30	> 30				
CC(=O)c1ccc(-c2cc(Cl)c3c(c2)CC(CNC(=O)/C=C/c2cccnc2N)O3)s1 (centres unmarked) [Compound 106, (E)-N-((5-(5-acetylthiophen-2-yl)-7-chloro-2,3-dihydrobenzofuran-2-yl)methyl)-3-(2-aminopyridin-3-yl)acrylamide]	5 to 30	5 to 30	5 to 30				
CC(=O)c1ccc(-c2ccc(Cl)c3c2CC(CNC(=O)/C=C/c2cccnc2)O3)s1 (centres unmarked) [Compound 173, (E)-N-((4-(5-acetylthiophen-2-yl)-7-chloro-2,3-dihydrobenzofuran-2-yl)methyl)-3-(pyridin-3-yl)acrylamide]	0.1 to 5	0.1 to 5	0.1 to 5				
O=C(/C=C/c1cccnc1)NCC1Cc2cc(-c3cccnc3)cc(Cl)c2O1 (centres unmarked) [Compound 70, (E)-N-((7-chloro-5-(pyridin-3-yl)-2,3-dihydrobenzofuran-2-yl)methyl)-3-(pyridin-3-yl)acrylamide]	0.1 to 5	0.1 to 5	5 to 30				
